# Experiments:
# [1] = system: cervical HeLa cancer cells; experiment: Cytotoxic activity (MTT assay); format: cell-based, human; details: 24 h; for Cell Viability, % of Control, HeLa: 100 µM, MTT; for IC50: Homo sapiens, HeLa, read-out: IC50, HeLa cell viability
# [2] = system: human prostate PC-3 cancer cells; experiment: Cytotoxic activity (MTT assay); format: cell-based; details: 100 µM, 24 h, MTT
# Description: (§1) The human prostate cancer cells PC-3 and CRL-1435 and the human embryonic kidney cells HEK-293 and CRL-1573TM were purchased from the American Type Culture Collection (ATCC; Manassas, VA, USA). PC-3 and HEK-293 cells were cultured in DMEM medium containing 10% fetal bovine serum (Biolot, St. Petersburg, Russia) and 1% penicillin/streptomycin (Biolot, St. Petersburg, Russia) at 37 °C in a humidified atmosphere with 5% (v/v) CO2. The cells were incubated in cultural flasks until sub-confluent (~80%).
# (§2) PC-3 cells (5 × 10^3 cells/well) and HEK 293 cells (8 × 10^3 cells/well) were seeded in a 96-well plate and incubated overnight. […] Cell viability was then determined by the MTT (3-(4,5-dimethylthiazol-2-yl)-2,5-diphenyltetrazolium bromide) method according to the manufacturer’s instructions (Sigma-Aldrich, St. Louis, MO, USA). The absorbance of the converted formazan was measured using a Multiskan FC microplate photometer (Thermo Scientific, Waltham, MA, USA) at λ = 570 nm. The results are presented as percentages of the control data.
# [3] = system: normal human kidney cells; experiment: Cytotoxic activity (MTT assay); format: cell-based; details: 100 µM, 24 h
# Description: (§3) The influence of compounds 1, 2 and 4–14 on the viability of normal human kidney […] cells, as well as human prostate PC-3, cervical HeLa and breast MCF-7 cancer cells, was measured using the MTT assay after 24 h of treatment.
# as §1
# PC-3 cells (5 × 10^3 cells/well) and HEK 293 cells (8 × 10^3 cells/well) were seeded in a 96-well plate and incubated overnight. Then, compounds were added at concentrations of 1–100 μM and incubated for another 24 h. Cell viability was then determined by the MTT (3-(4,5-dimethylthiazol-2-yl)-2,5-diphenyltetrazolium bromide) method according to the manufacturer’s instructions (Sigma-Aldrich, St. Louis, MO, USA). The absorbance of the converted formazan was measured using a Multiskan FC microplate photometer (Thermo Scientific, Waltham, MA, USA) at λ = 570 nm. The results are presented as percentages of the control data.
# [4] = system: breast MCF-7 cancer cells; experiment: Cytotoxic activity (MTT assay); format: cell-based, human; details: 100 µM, 24 h, MTT
# Description: as §3, §2
# [5] = system: Candida albicans KMM 455; experiment: Antimicrobial activity, microbial growth in broth (OD620); format: cell-based; details: for inhibition of growth at 100 µM: Candida albicans, KMM455, compound at 100 µM, read-out: Inhibition of Microbial Growth, % of Control, C. albicans
# Description: (§4) The yeast-like fungus Candida albicans KMM 455 and bacterial strains Staphylococcus aureus ATCC 21027 and Escherichia coli VKPM (B-7935) (Collection of Marine Microorganisms PIBOC FEB RAS) were cultured on solid-medium Mueller–Hinton broth with agar (16.0 g/L) in a Petri dish at 37 °C for 24 h. The assays were performed in 96-well microplates in an appropriate Mueller–Hinton broth. Each well contained 90 µL of a bacterial or yeast-like fungal suspension (10^6 CFU/mL). Then, 10 µL was added of a compound diluted at concentrations from 1.5 µM to 100.0 µM using twofold dilution (DMSO concentration < 1%). Culture plates were incubated overnight at 37 °C, and the OD620 was measured using a Multiskan FC spectrophotometer (Thermo Scientific Inc., Beverly, MA, USA). The antibiotic gentamicin and antifungal agent nitrofungin were used as positive controls at 1 mg/mL; 1% DMSO in PBS served as a negative control. Examination was performed twice and in triplicate. The results were calculated as a percentage of the control data using SigmaPlot 14.0 software.
# [6] = system: Staphylococcus aureus ATCC 21027; experiment: as above; format: cell-based; details: read-out: Inhibition of Microbial Growth, % of Control, S. aureus; for inhibition of growth at 100 µM: ATCC21027, compound at 100 µM
# Description: as §4
# [7] = system: Escherichia coli VKPM (B-7935); experiment: as above; format: cell-based; details: read-out: Inhibition of Microbial Growth, % of Control, E. coli; for inhibition of growth at 100 µM: compound at 100 µM
# Description: as §4
# [8] = system: MCF-7 cells; experiment: Drug combination study with doxorubicin (MTT); format: cell-based, human; details: 24 h
# [9] = system: autophagy-related cargo protein p62; set-up: method as in PMID 28218691; details: PC-3 cells; cited from earlier work
# [10] = system: CoCl2-treated HEK-293 cells; experiment: Lipid peroxidation level (MitoCLox) in CoCl2-treated cells; format: cell-based, human; details: MitoCLox fluorescence dye
# Description: The fluorescence probe MitoCLox (Lumiprobe, Moscow, Russia) was used for the detection of the lipid peroxidation level in CoCl2-treated cells. It was added in the cells for 1 h at a concentration of 200 nM. After 1 h, the cells were washed with PBS and fluorescence was measured in ratiometric mode with λem = 520/590 nm using a PHERAStar FS plate reader (BMG Labtech, Offenburg, Germany). The data were processed with MARS Data Analysis v. 3.01R2 (BMG Labtech, Offenburg, Germany) and calculated as a 520/590 ratio.
Compound,"Cell Viability, % of Control, HeLa [1]","Cell Viability, % of Control, PC-3 [2]","Cell Viability, % of Control, HEK-298 [3]","Cell Viability, % of Control, MCF-7 [4]",inhibition of growth at 100 µM [5] [%],inhibition of growth at 100 µM [6] [%],inhibition of growth at 100 µM [7] [%],decrease of MCF-7 cell viability ([8]; doxorubicin alone at 0.1 µM) [%],decrease of MCF-7 cell viability ([8]; doxorubicin alone at 1 µM),IC50 [1] [µM],effect on autophagy-related cargo protein p62 [9],lipid peroxide levels in CoCl2-treated HEK-293 cells [10],"Inhibition of Microbial Growth, % of Control, C. albicans ([5]; positive control at 1 mg/mL)","inhibition of growth at 1000 µg/mL ([6]; ATCC21027, positive control at 1 mg/mL) [%]",inhibition of growth at 1000 µg/mL ([7]; positive control at 1 mg/mL) [%]
"C[C@H]1C=C[C@H]2[C@H](O)[C@@H](C)CC[C@@H]2[C@H]1C(=O)CCO [Compound 8, 13-dehydroxypallidopenilline A]",72.66 ± 2.49 % of Control,83.60 ± 1.81 % of Control,86.10 ± 2.24 % of Control,81.21 ± 5.56 % of Control,0,19.9 ± 1.82,0,,,,,,,,
"COc1cccc2c1C(=O)c1c(O)c3c(c(O)c1C2=O)C[C@@](O)(C(=O)CO)C[C@@H]3O[C@H]1C[C@H](N)[C@H](O)[C@H](C)O1 [doxorubicin, reference compound]",,,,,,,,30,approximately 60%,,,,,,
"CC(=O)[C@@H]1[C@H]2CC[C@H](CO)C[C@@H]2C=C[C@@]1(C)O [Compound 6, zosteropenilline P]",71.44 ± 3.99 % of Control,83.15 ± 1.72 % of Control,83.26 ± 3.78 % of Control,82.05 ± 1.31 % of Control,17.3 ± 2.55,29 ± 1.66,0,,,,,,,,
"CC1(O)CCC2C(C=CC(C)(O)C2C(=O)CCO)C1 (stereo not shown) [Compound 4, 8-hydroxyzosteropenilline G]",81.80 ± 6.76 % of Control,94.71 ± 1.53 % of Control,94.71 ± 1.53 % of Control,81.92 ± 3.92 % of Control,11 ± 2.31,0,0,,,,,,,,
"C[C@H]1CC[C@@H]2[C@@H](C(=O)CCO)[C@](C)(O)C=C[C@H]2C1 [Compound 11, zosteropenilline G]",34.35 ± 1.90 % of Control,93.97 ± 2.36 % of Control,93.97 ± 2.36 % of Control,81.00 ± 2.38 % of Control,18.1 ± 2.58,16.9 ± 4.12,0,,,79.7,upregulators,,,,
C[C@@]1(O)CC[C@@H]2[C@H]3C(=O)CCO[C@@]3(C)C=C[C@H]2C1 [zosteropenilline C],,,,,,,,,,,upregulators,,,,
"CC1=CC(O)C2CC(C)(O)CCC2C1C(=O)CCO (stereo not drawn) [Compound 2, 11-epi-8-hydroxyzosteropenilline M]",44.12 ± 5.13 % of Control,90.98 ± 2.82 % of Control,90.98 ± 2.82 % of Control,57.46 ± 1.82 % of Control,6.12 ± 1.89,0,0,,,87.3,,,,,
"CC(=O)C1C2CCC(C)C(O)C2C=CC1(C)O (stereo not shown) [Compound 7, zosteropenilline Q]",80.80 ± 3.25 % of Control,88.70 ± 1.10 % of Control,80.00 ± 0.99 % of Control,76.23 ± 4.53 % of Control,19.2 ± 3.12,29.9 ± 4.5,0,,,,,,,,
"CC1=C[C@H](O)[C@H]2C[C@@H](C)CC[C@@H]2[C@H]1C(=O)CCO [Compound 1, zosteropenilline M]",66.49 ± 6.19 % of Control,89.25 ± 0.44 % of Control,95.16 ± 4.01 % of Control,86.42 ± 1.76 % of Control,8.32 ± 0.62,30.1 ± 2.42,0,,,,,significantly decreased,,,
"O=[N+]([O-])c1ccc(O)c(Cl)c1 [nitrofungin, reference compound]",,,,,,,,,,,,,98.13 ± 0.69 % of Control,,
"C[C@H]1CC[C@H]2[C@@H](C=C[C@@](C)(O)[C@@H]2C(=O)CCO)[C@@H]1O [Compound 13, pallidopenilline A]",71.85 ± 3.02 % of Control,89.76 ± 3.31 % of Control,89.76 ± 3.31 % of Control,95.05 ± 1.51 % of Control,0,15.5 ± 1.35,0,,,,,,,,
"C[C@H]1CC[C@H]2C(=C[C@@H](O)[C@@](C)(O)[C@@H]2C(=O)CCO)C1 [Compound 9, zosteropenilline R]",79.14 ± 6.36 % of Control,96.44 ± 7.63 % of Control,96.45 ± 7.64 % of Control,79.64 ± 1.67 % of Control,12 ± 1.14,11.7 ± 1.71,0,,,,,significantly decreased,,,
"CC(=O)[C@@H]1[C@H]2CC[C@@](C)(O)C[C@@H]2C=C[C@@]1(C)O [Compound 5, zosteropenilline O]",37.12 ± 3.85 % of Control,91.20 ± 3.37 % of Control,85.64 ± 1.85 % of Control,77.40 ± 2.73 % of Control,35.3 ± 1.16,0,0,,,82.5,,significantly decreased,,,
"CC1CCC2C(C1)C(Cl)C(O)C(C)(O)C2C(=O)CCO (stereo not shown) [Compound 10, zosteropenilline S]",68.69 ± 6.21 % of Control,85.98 ± 2.13 % of Control,98.10 ± 1.15 % of Control,84.85 ± 4.90 % of Control,0,15.7 ± 0.36,0,,,,,,,,
C[C@H]1CC[C@H]2[C@@H](C=C[C@]3(C)OCCC(=O)[C@H]23)[C@@H]1O [zosteropenilline A],,,,,,,,,,,upregulators,,,,
"CNC(C)C1CCC(N)C(OC2C(N)CC(N)C(OC3OCC(C)(O)C(NC)C3O)C2O)O1 (stereo not shown) [Gentamicin, gentamicin, reference compound]",,,,,,,,,,,,,,98.6 ± 1.15,97.6 ± 2.1

# From PMC11277992, “New Zosteropenillines and Pallidopenillines from the Seagrass-Derived Fungus Penicillium yezoense KMM 4679” (Marine Drugs, 2024)
